Reference: patent publication US5342843A, “Thienoimidazoppyridone derivatives” (Kyowa Hakko Kogyo Co., Ltd., priority 1991, dated 1994)

Columns and labels:
[1] = system: plaque-forming cells (PFC); test: Inhibiting effect on plaque-forming cells (PFC); format: cell-based, Balb/c strain male mice; conditions: 120 h; concentration: 10^-5 M; mouse spleen cells, 5 days culture; read-out: PFC inhibition rate (%)
Source text: The method devised by Jerne, et al. [Science, Vol. 140, p.405 (1963)] was followed while referring to the method of Yamamoto, et al. [Drugs Exptl. Clin. Res., Vol. 8, p.5 (1982)]. That is, Balb/c strain male mice (7-week-old/SLC) were sensitized with 1×10^8 sheep erythrocytes (manufactured by Bio Test Research Institute), and the spleen was extirpated on the 6th or 7th day. The erythrocytes were removed using ACT solution [Tris (hydroxymethyl) aminomethane-NH4 Cl solution] from the spleen cells, and were washed with RPMI-1640 medium (manufactured by Nissui Seiyaku Co.) three times. Suspensions of the obtained cells (1×10^7) and the sheep erythrocytes (5×10^6) were suspended with RPMI-1640 medium containing the test compound, 2-mercaptoethanol (5×10^-5 M), 10% bovine fetal serum (manufactured by Gibco Co.), streptomycin and penicillin. The obtained cell suspension was distributed into a 24-well microculture plate, and cultured in a carbon dioxide gas incubator at 37° C. for 5 days.
After the completion of culturing, the cells were transferred to a plastic test tube. They are centrifuged at 2000 rpm and the supernatant was removed. Then, the cells were further suspended in 1 ml of RPMI-1640. The cell suspension was charged, together with the sheep erythrocytes and the guinea pig complements, into a Cunningham chamber (manufactured by Takahashi Giken Co.), by the method of Cunningham, et al. [Immunology, Vol. 14, p.599 (1968)]. The cells were incubated at 37° C. for 1-2 hours, and then a direct PFC count was determined.

guinea pig trachea = test: Passive Schultz-Dale reaction (relaxation of ovalbumin-induced contraction of passively sensitized trachea); set-up: species or system male Hartley guinea pigs; conditions: Cavia porcellus; concentration causing 50% relaxation; ovalbumin 1 μg/ml, cumulative addition; isolated trachea, 37° C.
Method: Rabbit anti-OA serum prepared in advance by the method of Kohda, et al. [Folia Pharmacol. Japan, Vol. 66, p. 237 (1970)], was intraperitoneally administered to male Hartley guinea pigs weighing 350-500 g for passive sensitization, and 24 hours later tracheas of the animals were removed, and used for the following test. The tracheas were cut into zig-zag strips by the method of Emmerson and Mackay [J. Pharm. Pharmacol., Vol. 31, p.798 (1979)], were suspended in Krebs-Hensleit solution at 37° C. under aeration of a gas mixture of 95% oxygen and 5% carbon dioxide, and equilibrated for about 1 hour. The antigen, ovalbumin, was added to a bath (final concentration; 1 μg/ml). The contraction was recorded using an isotonic transducers (TD-112S; Nihon Koden Kogyo Co.) connected to a recorder (TYPE 3066; Yokogawa Hokushin Electric). Following the contraction curves reached a plateau, a test compound was cumulatively added in order to calculate the concentration causing 50% relaxation (IC50) which was determined from least-squares regression analysis.

SMILES	inhibition at 10 µM [1] [%]	IC50 (guinea pig trachea) [µM]
CCCCn1c(=O)c2ncn(C)c2c2ccsc21 [Compound 34, 5-n-butyl-1-methylthieno [2,3-b]-1H-imidazo [4,5-d]pyridine-4 (5H)-one]	-16.5	8.98
CCCCn1c(=O)c2c(ncn2C)c2sccc21 [Compound 2, 5-n-butyl-3-methylthieno[3,2-b]-3H-imidazo[4,5-d]pyridine-4(5H)-one]	43.3	12.2
CCCCn1c(=O)c2c(ncn2Cc2ccccc2)c2sccc21 [Compound 3, 3-benzyl-5-n-butylthieno [3,2-b]-3H-imidazo [4,5-d]pyridine-4 (5H)-one]	92.4	
CCCn1c(=O)c2[nH]cnc2c2sccc21 [Compound 11, 5-n-propylthieno [3,2-b]-3H-imidazo [4,5-d]pyridine-4(5H)-one]		0.922
CC(C)n1c(=O)c2c(ncn2C)c2sccc21 [Compound 7, 5-isopropyl-3-methylthieno[3,2-b]-3H-imidazo[4,5-d]pyridine-4(5H)-one]	29.5	3.53
CCn1c(=O)c2[nH]cnc2c2sccc21 [Compound 16, 5-ethylthieno[3,2-b]-3H-imidazo[4,5-d]pyridine-4(5H)one]	83.1	0.657
CCCCn1c(=O)c2c(ncn2C)c2ccsc21 [Compound 32, 5-n-butyl-3-methylthieno [2,3-b]-3H-imidazo [4,5-d]pyridine-4 (5H)-one]	16.5	0.854
CCn1c(=O)c2ncn(Cc3ccccc3)c2c2sccc21 [Compound 20, 1-benzyl-5-ethylthieno [3,2-b]-1H-imidazo [4,5-d]pyridine-4 (5H)-one]		3.41
CCCCn1c(=O)c2[nH]cnc2c2sccc21 [Compound 1, 5-n-butylthieno[3,2-b]-3H-imidazo[4,5-d]pyridine-4(5H)-one]	39.3	4.63
CCCn1c(=O)c2c(ncn2Cc2ccccc2)c2sccc21 [Compound 13, 3-benzyl-5-n-propylthieno [3,2-b]-3H-imidazo [4,5-d]pyridine-4(5H)-one]	68.3	
CCCCn1c(=O)c2c(ncn2Cc2ccccc2)c2ccsc21 [Compound 33, 3-benzyl-5-n-butylthieno [2,3-b]-3H-imidazo [4,5-d]pyridine-4 (5H)-one]	94.8	36.9
CCCn1c(=O)c2ncn(Cc3ccccc3)c2c2ccsc21 [Compound 39, 1-benzyl-5-n-propylthieno [2,3-b]-1H-imidazo [4,5-d]pyridine-4 (5H)-one]		2.39
CCCn1c(=O)c2ncn(C)c2c2sccc21 [Compound 14, 1-methyl-5-n-propylthieno [3,2-b]-1H-imidazo [4,5-d]pyridine-4 (5H)-one]		6.56
CCn1c(=O)c2c(ncn2C)c2sccc21 [Compound 17, 5-ethyl-3-methylthieno[3,2-b]-3H-imidazo[4,5-d]pyridine-4 (5H)-one]	47	10.5
CC(C)n1c(=O)c2ncn(C)c2c2sccc21 [Compound 9, 5-isopropyl-1-methylthieno[3,2-b]-1H-imidazo[4,5-d]pyridine-4(5H)-one]	23.8	7.29
CC(C)n1c(=O)c2[nH]cnc2c2sccc21 [Compound 6, 5-isopropylthieno [3,2-b]-3H-imidazo [4,5-d]pyridine-4 (5H)-one]	8.8	2.67
CCn1c(=O)c2ncn(C)c2c2sccc21 [Compound 19, 5-ethyl-1-methylthieno [3,2-b]-1H-imidazo [4,5-d]pyridine-4 (5H)-one]		9.98
CCCn1c(=O)c2c(ncn2C)c2sccc21 [Compound 12, 3-methyl-5-n-propylthieno [3,2-b]-3H-imidazo [4,5-d]pyridine-4(5H)-one]	60.4	2.95
CCCCn1c(=O)c2[nH]cnc2c2ccsc21 [Compound 31, 5-n-butylthieno [2,3-b]-3H-imidazo [4,5-d]pyridine-4 (5H) one]	-10.9	0.416
CCCCn1c(=O)c2ncn(Cc3ccccc3)c2c2ccsc21 [Compound 35, 1-benzyl-5-n-butylthieno [2,3-b]-1H-imidazo [4,5-d]pyridine-4 (5H)-one]	-3.8	6.06
